Test results as given in ChEMBL document CHEMBL1201862, “PubChem BioAssay data set” (2004).
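Assay format: 96-well plates, 48-hour exposure. Abbreviation: GI50, concentration required for 50% inhibition of growth.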 Activity calls are given as the source filed them. Cut-off read from the data, not from the text of the source: active = GI50 up to about 1.1 µM and inactive = higher.

Legend:
Assay in all cases: NCI tumour cell line growth inhibition, 48 h
MDA-MB-231 = test system: MDA-MB-231
NCI-H226 = test system: NCI-H226
M14 = test system: M14
SF-295 = test system: SF-295
K562 = test system: K562
PC-3 = test system: PC-3
SK-OV-3 = test system: SK-OV-3
NCI-H23 = test system: NCI-H23
IGROV-1 = test system: IGROV-1
NCI-H522 = test system: NCI-H522
SF-539 = test system: SF-539
OVCAR-4 = test system: OVCAR-4
SK-MEL-5 = test system: SK-MEL-5
ACHN = test system: ACHN
T47D = test system: T47D
UO-31 = test system: UO-31
KM12 = test system: KM12
LOX IMVI = test system: LOX IMVI
SK-MEL-2 = test system: SK-MEL-2
HOP-92 = test system: HOP-92
OVCAR-3 = test system: OVCAR-3
A549 = test system: A549
HCT-15 = test system: HCT-15
COLO 205 = test system: COLO 205
U-251 = test system: U-251
HT-29 = test system: HT-29
MDA-MB-435 = test system: MDA-MB-435
SK-MEL-28 = test system: SK-MEL-28
NCI/ADR-RES = test system: NCI/ADR-RES
CCRF-CEM = test system: CCRF-CEM
Malme-3M = test system: Malme-3M
SNB-75 = test system: SNB-75
MDA-N = test system: MDA-N
DU-145 = test system: DU-145
A498 = test system: A498
HL-60 = test system: HL-60
HOP-62 = test system: HOP-62
SR = test system: SR
HCT-116 = test system: HCT-116
MOLT-4 = test system: MOLT-4
NCI-H460 = test system: NCI-H460
SN12C = test system: SN12C
RXF 393 = test system: RXF 393
OVCAR-8 = test system: OVCAR-8
HCC 2998 = test system: HCC 2998
TK-10 = test system: TK-10
SW-620 = test system: SW-620
SF-268 = test system: SF-268
SNB-19 = test system: SNB-19
UACC-62 = test system: UACC-62
786-0 = test system: 786-0
UACC-257 = test system: UACC-257
MCF7 = test system: MCF7
RPMI-8226 = test system: RPMI-8226
CAKI-1 = test system: CAKI-1
EKVX = test system: EKVX
OVCAR-5 = test system: OVCAR-5

With `CC(=O)OCC1OC(n2c(C)c(C(C)=O)c(-c3ccc(Cl)cc3)c(C#N)c2=S)C(OC(C)=O)C(OC(C)=O)C1OC(C)=O` (stereo not given) the GI50 (MDA-MB-231) was > 100 µM (inactive), the GI50 (NCI-H226) was > 100 µM (inactive) and the GI50 (M14) was > 100 µM (inactive). The GI50 (SF-295) was > 100 µM (inactive), the GI50 (K562) was > 100 µM (inactive) and the GI50 (PC-3) was > 100 µM (inactive). The GI50 (SK-OV-3) was > 100 µM (inactive), the GI50 (NCI-H23) was > 100 µM (inactive) and the GI50 (IGROV-1) was > 100 µM (inactive). The GI50 (NCI-H522) was > 100 µM (inactive), the GI50 (SF-539) was > 100 µM (inactive) and the GI50 (OVCAR-4) was > 100 µM (inactive). For the same molecule, the GI50 (SK-MEL-5) was > 100 µM (inactive), the GI50 (ACHN) was > 100 µM (inactive) and the GI50 (T47D) was > 100 µM (inactive). The GI50 (UO-31) was > 100 µM (inactive), the GI50 (KM12) was > 100 µM (inactive) and the GI50 (LOX IMVI) was > 100 µM (inactive). The GI50 (SK-MEL-2) was > 100 µM (inactive), the GI50 (HOP-92) was > 100 µM (inactive) and the GI50 (OVCAR-3) was > 100 µM (inactive). For the same molecule, the GI50 (A549) was > 100 µM (inactive), the GI50 (HCT-15) was > 100 µM and the GI50 (COLO 205) was > 100 µM (inactive). For the same molecule, the GI50 (U-251) was > 100 µM (inactive), the GI50 (HT-29) was > 100 µM (inactive) and the GI50 (MDA-MB-435) was > 100 µM (inactive). For the same molecule, the GI50 (SK-MEL-28) was > 100 µM (inactive), the GI50 (NCI/ADR-RES) was > 100 µM (inactive) and the GI50 (CCRF-CEM) was > 100 µM (inactive). For the same molecule, the GI50 (Malme-3M) was > 100 µM (inactive), the GI50 (SNB-75) was > 100 µM (inactive) and the GI50 (MDA-N) was > 100 µM (inactive). The GI50 (DU-145) was > 100 µM (inactive), the GI50 (A498) was > 100 µM (inactive) and the GI50 (HL-60) was > 100 µM (inactive). The GI50 (HOP-62) was > 100 µM (inactive), the GI50 (SR) was > 100 µM (inactive) and the GI50 (HCT-116) was > 100 µM (inactive). For the same molecule, the GI50 (MOLT-4) was > 100 µM (inactive), the GI50 (NCI-H460) was > 100 µM (inactive) and the GI50 (SN12C) was > 100 µM (inactive). For the same molecule, the GI50 (RXF 393) was > 100 µM (inactive), the GI50 (OVCAR-8) was > 100 µM (inactive) and the GI50 (HCC 2998) was > 100 µM (inactive). For the same molecule, the GI50 (TK-10) was > 100 µM (inactive), the GI50 (SW-620) was > 100 µM (inactive) and the GI50 (SF-268) was > 100 µM (inactive). For the same molecule, the GI50 (SNB-19) was > 100 µM (inactive), the GI50 (UACC-62) was > 100 µM (inactive) and the GI50 (786-0) was > 100 µM (inactive). The GI50 (UACC-257) was > 100 µM (inactive) and the GI50 (MCF7) was > 100 µM (inactive).

In the case of `CC(NC(C#N)CC12CC3CC(CC(C3)C1)C2)c1ccccc1` (stereo not given), the GI50 (MDA-MB-231) was 81.1 µM (inactive), the GI50 (M14) was 54.8 µM (inactive) and the GI50 (SF-295) was 20.6 µM (inactive). The GI50 (K562) was 23.1 µM (inactive), the GI50 (PC-3) was > 100 µM (inactive) and the GI50 (SK-OV-3) was 59.6 µM (inactive). The GI50 (RPMI-8226) was 15.5 µM (inactive), the GI50 (IGROV-1) was 32.4 µM (inactive) and the GI50 (NCI-H522) was > 100 µM (inactive). The GI50 (SK-MEL-5) was > 100 µM (inactive), the GI50 (ACHN) was 47.6 µM (inactive) and the GI50 (T47D) was 52 µM (inactive). The GI50 (UO-31) was 77.8 µM (inactive), the GI50 (LOX IMVI) was 17.8 µM (inactive) and the GI50 (HOP-92) was 0.753 µM (active). The GI50 (OVCAR-3) was 13.6 µM (inactive), the GI50 (A549) was > 100 µM (inactive) and the GI50 (HCT-15) was 56.8 µM. For the same molecule, the GI50 (COLO 205) was 38.1 µM (inactive), the GI50 (U-251) was 42.2 µM (inactive) and the GI50 (HT-29) was 31.3 µM (inactive). For the same molecule, the GI50 (CAKI-1) was 33.3 µM (inactive), the GI50 (MDA-MB-435) was > 100 µM (inactive) and the GI50 (SK-MEL-28) was > 100 µM (inactive). The GI50 (NCI/ADR-RES) was > 100 µM (inactive), the GI50 (CCRF-CEM) was 20.7 µM (inactive) and the GI50 (Malme-3M) was > 100 µM (inactive). For the same molecule, the GI50 (MDA-N) was > 100 µM (inactive), the GI50 (DU-145) was 41.8 µM (inactive) and the GI50 (A498) was > 100 µM (inactive). For the same molecule, the GI50 (HL-60) was 18.5 µM (inactive), the GI50 (HOP-62) was > 100 µM (inactive) and the GI50 (SR) was 28.4 µM (inactive). The GI50 (HCT-116) was 34.8 µM (inactive), the GI50 (MOLT-4) was 27.9 µM (inactive) and the GI50 (NCI-H460) was 26.5 µM (inactive). The GI50 (EKVX) was > 100 µM (inactive), the GI50 (OVCAR-8) was 60.8 µM (inactive) and the GI50 (HCC 2998) was > 100 µM (inactive). The GI50 (TK-10) was > 100 µM (inactive), the GI50 (SW-620) was 54.8 µM (inactive) and the GI50 (SF-268) was 47.4 µM (inactive). The GI50 (SNB-19) was > 100 µM (inactive), the GI50 (UACC-62) was 84.3 µM (inactive) and the GI50 (UACC-257) was > 100 µM (inactive). The GI50 (OVCAR-5) was 63.8 µM (inactive) and the GI50 (MCF7) was 48.9 µM (inactive).

`O=P(O)(Cc1ccccc1)OCC1(O)OCC(O)C(O)C1O` (stereo not given) was tested, and the GI50 (M14) was > 10 µM (inactive), the GI50 (K562) was > 10 µM (inactive) and the GI50 (SK-OV-3) was > 10 µM (inactive). For the same molecule, the GI50 (NCI-H23) was > 10 µM (inactive), the GI50 (RPMI-8226) was > 10 µM (inactive) and the GI50 (IGROV-1) was > 10 µM (inactive). The GI50 (OVCAR-4) was > 10 µM (inactive), the GI50 (SK-MEL-5) was > 10 µM (inactive) and the GI50 (ACHN) was > 10 µM (inactive). The GI50 (T47D) was > 10 µM (inactive), the GI50 (SK-MEL-2) was > 10 µM (inactive) and the GI50 (A549) was > 10 µM (inactive). For the same molecule, the GI50 (COLO 205) was > 10 µM (inactive), the GI50 (U-251) was > 10 µM (inactive) and the GI50 (CAKI-1) was > 10 µM (inactive). The GI50 (MDA-MB-435) was > 10 µM (inactive), the GI50 (SK-MEL-28) was > 10 µM (inactive) and the GI50 (NCI/ADR-RES) was > 10 µM (inactive). For the same molecule, the GI50 (Malme-3M) was > 10 µM (inactive), the GI50 (SNB-75) was > 10 µM (inactive) and the GI50 (HOP-62) was > 10 µM (inactive). For the same molecule, the GI50 (SR) was > 10 µM (inactive), the GI50 (NCI-H460) was > 10 µM (inactive) and the GI50 (RXF 393) was > 10 µM (inactive). For the same molecule, the GI50 (SW-620) was > 10 µM (inactive), the GI50 (SF-268) was > 10 µM (inactive) and the GI50 (UACC-62) was > 10 µM (inactive). For the same molecule, the GI50 (786-0) was > 10 µM (inactive), the GI50 (OVCAR-5) was > 10 µM (inactive) and the GI50 (MCF7) was > 10 µM (inactive).
